Assay results: patent US20250215105A1, “ANTI-CD39 ANTIBODY” (BrightPath Biotherapeutics Co., Ltd., priority 2022, published 2025)

Experiments:
activated Tregs = test: binding to activated Tregs (FACS); set-up: species or system human; conditions: 10 μg/mL
Protocol: Purchased healthy human PBMCs (Wako Pure Chemicals, 33000-10M) were seeded at 2×10^5 cells/well in a 96 well U-bottom plate and cultured in the presence of 10 IU/mL IL-2 (NIPRO, 87-890) and 20 ng/mL IL-7 (PeproTech, 200-07) for 6 days. After 6 days, all the cells were collected and the Treg population was isolated using a CD4^+CD25^+CD127^dim/− Regulatory T Cell Isolation Kit II, human (Miltenyi, 130-094-775). Isolated Tregs were seeded at 2×10^4 cells/well in ab96 well U-bottom plate and stimulated for 6 days in the presence of 6×10^5 Dynabeads Human T-Activator CD3/CD28 (Gibco, DB11132-D), 10 IU/mL IL-2, and 20 ng/mL IL-7. The medium used was RPMI (Wako Pure Chemicals, 189-02025) supplemented with 10% Human Serum AB (Gemini Bio, 100-512, H46X00K), 1 mM penicillin streptomycin (Nacalai Tesque, 09367-34), 1 mM sodium pyruvate (Gibco, 11360070), 10 mM HEPES (Nacalai Tesque, 17557-94), GlutaMAX (Thermo Fisher, 35050061). 11360070), 10 mM HEPES (Nacalai Tesque, 17557-94), and GlutaMAX (Thermo Fisher, 35050061). After 6 days, Tregs were collected and analyzed for binding of each test antibody by using a FACSVerse. GraphPad Prism 9.2.0 was used for data analysis.

[1] = test system: T cells in healthy human PBMCs; test: effects on T cells in cultured healthy PBMCs (cell type analysis, Treg removal, cytotoxic T cell induction); assay type: cell-based; conditions: healthy PBMCs cultured with antibody for 5 days
Protocol: Purchased healthy human PBMCs (33000-10, Wako Pure Chemicals) were seeded at 5×10^5 cells/well in a 96 well U-bottom plate and cultured in the presence of 100 IU/mL IL-2 (87-890, NIPRO) and 20 ng/mL IL-7 (200-07, PeproTech) for 5 or 6 days to induce Tregs. The medium was washed out and the cells were cultured in the presence of CMV peptide A02 (TS-0010-1c, MBL), 10 IU/mL IL-2, and 20 ng/mL IL-7 for 11 days to induce antigen-specific cytotoxic T cells. The medium used was RPMI-1640 (189-0202, Wako Pure Chemicals) supplemented with 10% Human Serum AB (100-512, H46X00K, Gemini Bio), 1 mM penicillin streptomycin (09367-34, Nacalai Tesque), 1 mM sodium pyruvate (11360070, Gibco), 10 mM HEPES (17557-9, Nacalai Tesque), 1% GlutaMAX (35050061, Thermo Fisher), and 0.01 mM 2-mercaptoethanol (21438-82, Nacalai Tesque).
FACSVerse (BD) was used for various cell type analyses. Cells were counted using CountBright™ Absolute Counting Beads (C36950, Invitrogen). GraphPad Prism 9.2.0 was used for data analysis.
Substantially the same method as described in the Section 21.1 above was used to check a change in the percentage of various CD39^hi-expressing T cells by each glycan-modified anti-CD39 antibody.

[2] = test system: human multiple myeloma-derived cell line MOLP-8; conditions: day 24, last day of the study
Protocol: The human multiple myeloma-derived cell line MOLP-8 (DMSZ, ACC569) was subcutaneously transplanted (at 5×10^6 cells/mouse) into the right abdomen of each SCID mouse (C.B-17/Icr-scid/scidJcl, female, 7-week-old). On day 10 after transplantation, the mice were divided into groups based on tumor volume. Each antibody was administered in the doses listed in Table 3 twice a week for a total of seven doses starting on the day of grouping. Doxorubicin was administered twice a week for a total of 5 doses, starting 7 days after the grouping date. The tumor diameter and body weight were measured on day 24 after grouping. The tumor weight (n=5) data were analyzed using GraphPad Prism 9.2.0. One-way ANOVA and Tukey multiple comparisons test were used for statistical analysis. A significant difference was assumed when p**≤0.01.

[3] = test system: A375 (malignant melanoma cancer cell line); test: cancer cell growth inhibition test with Treg-removed PBMCs; assay type: cell-based, human; conditions: PBMCs pre-treated with 10 μg/ml antibody for 5 days, co-culture 5 days
Protocol: Purchased healthy human PBMCs (Wako Pure Chemicals, 33000-10M) were seeded at 5×10^5 cells/well in a 96 well U-bottom plate and cultured in the presence of 100 IU/mL IL-2 (NIPRO, 87-890), 20 ng/mL IL-7 (PeproTech, 200-07), and each test antibody at 10 μg/ml for 5 days. Then, 15,000 cells/well of A375 (malignant melanoma cancer cell line) overexpressing CMV antigen and RFP were mixed with 45,000 cells/well of PBMCs prepared after 5 days of culture, and the mixture was co-cultured at 37° C. and 5% CO2 for 5 days. At this time, the medium used was RPMI-1640 (189-0202, Wako Pure Chemicals) supplemented with 10% Human Serum AB (100-512, H46X00K, Gemini Bio), 1 mM penicillin streptomycin (09367-34, Nacalai Tesque), 1 mM sodium pyruvate (11360070, Gibco), 10 mM HEPES (17557-9, Nacalai Tesque), 1% GlutaMAX (35050061, Thermo Fisher), and 0.01 mM 2-mercaptoethanol (21438-82, Nacalai Tesque). The number of A375 cells was then determined by measuring the fluorescence value of RFP while using a Varioskan LUX multimode microplate reader (Thermo Fisher Scientific). GraphPad Prism 9.2.0 was used for data analysis.

Row | Molecule | ability of binding to activated Tregs (activated Tregs) | CD39^hiCD4+FoxP3+ Tregs and effector Tregs (Fr. II) [1] | heart weight [2] | growth of human malignant melanoma A375 [3]
1 | mogamulizumab | not strong | significant loss of only effector Tregs (Fr. II) |  | 
2 | COc1cccc2c1C(=O)c1c(O)c3c(c(O)c1C2=O)C[C@@](O)(C(=O)CO)C[C@@H]3O[C@H]1C[C@H](N)[C@H](O)[C@H](C)O1 [doxorubicin] |  |  | decreased | 
3 | ipilimumab | not strong | significant loss of only effector Tregs (Fr. II) |  | no inhibitory effect
